Columns and labels:
primary microglia = assay: qPCR of inflammatory gene expression in LPS-stimulated primary microglia; format: cell-based, rat; settings: LPS treated primary microglia, AE1-329 100 nM, 3 h
Protocol: (§1) Murine microglial-like BV-2 cells were grown in DMEM medium supplemented with 10% heat-inactivated fetal bovine serum (HyClone, Logan, Utah) and 100 units/ml each of penicillin and streptomycin and were maintained at 37° C. in a humidified atmosphere containing 5% CO2. For primary microglial cultures, cerebral cortices were isolated from postnatal day 2 Sprague-Dawley rat pups obtained from Charles River Laboratories International, Inc. (Davis, Calif.). Tissues were minced and incubated in 0.25% trypsin-EDTA, mechanically triturated in DMEM/F-12 with 10% FBS, and plated on poly-L-lysine-coated […]. Cultures were maintained for 14 days with media changes every 4 days. […]
(§2) qPCR was carried out as previously described (Liang et al., 2008). […] The mRNA level for each target gene was quantified by SYBR Green-based qPCR using the QuantiTect SYBR Green PCR kit (Qiagen). […] Quantification was performed using the standard curve method. […]
(§3) Inflammatory stimuli such as LPS can activate microglia through the CD14/TLR4 receptor complex and induce the expression of pro-inflammatory enzymes and cytokines (Fassbender et al., 2004; Walter et al., 2007). […] BV-2 cells were treated with LPS (10 ng/ml) in the presence or absence of the selective EP4 agonist AE1-329 (1 μM) for 6 h, and pro-inflammatory gene expression was measured using qPCR (see FIG. 2). […]

BV-2 cells = assay: qPCR of pro-inflammatory gene expression in LPS-stimulated BV-2 cells; format: cell-based, murine; settings: LPS 10 ng/ml, 6 h
Protocol: as §1, §2, §3

primary human monocytes = assay: TNF-α and IL-6 ELISA in LPS-stimulated primary human monocytes; format: cell-based; settings: LPS 100 ng/ml, AE1-329 100 nM, 6 hours
Protocol: Human monocyte derived macrophages were purchased from AllCells (Catalog #PB-MDM-001F: Frozen normal peripheral blood monocyte derived macrophages) and plated at a density of 23,000 cells per well in a 96 well plate. Two dilutions (1:5 and 1:10) were tested using anti-human IL6 and anti-human TNFα ELISA to measure concentrations of these two cytokines in pg/ml after 6 hours of stimulation with either vehicle alone, AE1-329 (100 nM), LPS, and LPS plus AE1-329 (100 nM).
Primary human monocytes were stimulated with either vehicle (PBS) alone, AE1-329 (100 nM), LPS (100 ng/ml), and LPS (100 ng/ml) plus AE1-329 (100 nM). Two dilutions (1:5 and 1:10) were tested using anti-human IL6 and anti-human TNF-α ELISA to measure concentrations of these two cytokines in pg/ml after 6 hours of stimulation.

SMILES: COCc1ccccc1CC[C@H](O)/C=C/[C@H]1[C@H](O)CC(=O)[C@@H]1SCCCSCC(=O)O [AE1-329]
- IL-10 expression (primary microglia): upregulation of the anti-inflammatory IL-10
- pro-inflammatory gene expression (iNOS, COX-2, TNF-α, gp91phox) (primary microglia): downregulation of pro-inflammatory gene expression
- LPS-induced mRNA of COX-2, iNOS, gp91phox, TNF-α, IL-1β and IL-6 (BV-2 cells; AE1-329 1 μM, qPCR): significantly blunted the induction of these genes
- IL-10 mRNA expression (BV-2 cells; co-stimulation with AE1-329 1 μM): significantly induced expression
- LPS-induced increase in IL-6 levels (ELISA) (primary human monocytes): significantly reduced
- LPS-induced increase in TNF-α levels (ELISA) (primary human monocytes): entirely reversed

From patent US20120283293A1, “Methods of neuroprotection involving Prostaglandin E2 EP4 (PGE2 EP4) receptor activation” (The Board of Trustees of the Leland Stanford Junior …, priority 2011, published 2012)
